Experimental data: publication PMC6720511, “Synthesis and biological evaluation of novel N-(piperazin-1-yl)alkyl-1H-dibenzo[a,c]carbazole derivatives of dehydroabietic acid as potential MEK inhibitors” (Journal of Enzyme Inhibition and Medicinal Chemistry, 2019)
Peptide text beside a SMILES is read from it. * marks the point of attachment. Cbz = O=C(OCc1ccccc1)*; CH2F = FC*

Columns and labels:
SMMC-7721 = experiment: MTT cytotoxic assay; assay type: cell-based, human; conditions: Homo sapiens, SMMC-7721, 48 h, mean value ± SD
Experimental: (§1) Three human hepatocarcinoma cell lines (SMMC-7721, HepG2 and Hep3B) and normal hepatocyte cell line (QSG-7701) were maintained in Dulbecco Modified Eagle Medium (DMEM) containing 4.0 mM L-Glutamine and 4500 mg/l Glucose supplemented with 10% (v/v) foetalbovine serum (FBS) and 100 unites/mL penicillin/streptomycin at 37 °C in humidified atmosphere of 5% CO2 and 95% air.
(§2) The in vitro cytotoxic activities of the carbazole derivatives of DHA were evaluated against three human hepatocarcinoma cell lines (SMMC-7721, HepG2 and Hep3B) and a normal human hepatocyte cell line (QSG-7701) via the MTT colorimetric method. Briefly, SMMC-7721, HepG2, Hep3B and QSG-7701 cells were harvested at log phase of growth and seeded in 96-well plates (100 µL/well at a density of 2 × 10^5 cells/mL). After 24 h incubation at 37 °C and 5% CO2 to allow cell attachment, cultures were exposed to various concentrations of the isolated compounds for 48 h. Finally, MTT solution (2.5 mg/mL in PBS) was added (40 µL/well). Plates were further incubated for 4 h at 37 °C, and the formazan crystals formed were dissolved by adding 150 µL/well of DMSO. Absorption at 570 nm was measured with an ELISA plate reader. […] Doxorubicin was co-assayed as positive control.

Hep3B = experiment: MTT cytotoxic assay; assay type: cell-based, human; conditions: Homo sapiens, Hep3B, 48 h, mean value ± SD
Experimental: as §1, §2

HepG2 = experiment: MTT cytotoxic assay; assay type: cell-based, human; conditions: Homo sapiens, HepG2, 48 h, mean value ± SD
Experimental: as §1, §2

[1] = system: normal hepatocyte cell line (QSG-7701); experiment: MTT cytotoxic assay on normal hepatocytes; assay type: cell-based, human; conditions: Homo sapiens, QSG7701, 48 h, mean value ± SD
Experimental: as §1, §2

MEK1 [2] = molecular target: T1, MEK1 (Homo sapiens, UniProt Q02750); experiment: In vitro MEK1 inhibition assay (ADP-Glo kinase assay); assay type: biochemical; conditions: for IC50: recombinant GST-MEK1, GST-ERK2, 10 µM ATP, mean value ± SD, read-out: MEK1 inhibitory activity IC50 value
T1 construct: purchased Carna Biosciences, Japan
T1 sequence (Q02750 whole entry): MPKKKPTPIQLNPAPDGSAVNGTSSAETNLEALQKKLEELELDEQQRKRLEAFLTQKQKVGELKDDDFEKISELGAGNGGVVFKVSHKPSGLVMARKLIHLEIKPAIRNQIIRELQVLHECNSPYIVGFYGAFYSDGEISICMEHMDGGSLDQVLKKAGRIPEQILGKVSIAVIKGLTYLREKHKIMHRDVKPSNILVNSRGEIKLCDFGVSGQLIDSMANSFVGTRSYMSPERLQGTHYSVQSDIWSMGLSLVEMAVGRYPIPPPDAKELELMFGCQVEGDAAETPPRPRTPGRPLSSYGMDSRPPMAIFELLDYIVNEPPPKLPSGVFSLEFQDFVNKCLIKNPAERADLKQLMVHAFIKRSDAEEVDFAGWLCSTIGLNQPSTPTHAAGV
Experimental: An in vitro kinase assay of MEK1 was performed using ADP-Glo kinase assay (Promega, Madison, WI, USA) according to the manufacturer’s protocol. […] Reactions were stopped by adding 5 µL of ADP-Glo reagent to each well. After incubating at 22 °C for 40 min, 10 µL of the kinase detection reagent was added and the plates were incubated for another 30 min at 22 °C in the dark. The reaction mixture was analysed by EnSpire (PerkinElmer, Waltham, MA, USA). U0126 was used as the positive control for MEK1 inhibition.

[3] = system: three human hepatocarcinoma cell lines (SMMC-7721, HepG2 and Hep3B); experiment: MTT cytotoxic assay, statements over the three cancer cell lines; assay type: cell-based; conditions: Homo sapiens; at least one of SMMC-7721, HepG2, Hep3B; read-out: IC50 against at least one hepatocarcinoma cell line
Experimental: as §1, §2

MEK1 [4] = molecular target: T1, MEK1; experiment: Preliminary screening of in vitro MEK1 inhibitory activity; assay type: biochemical
HepG2 cells = experiment: Cell death inhibition assay; assay type: cell-based, human; conditions: 24 h
Experimental: Figure 6. Compound 10g induced oncosis and apoptosis of HepG2 cells. (a) PD150606 and Z-VAD-FMK partially reversed compound 10g-induced cell death. HepG2 cells were incubated with PD150606, Z-VAD-FMK or Necrostatin-1 at indicated concentration for 24 h alone or in combination with compound 10g at indicated concentration for 24 h. (b) Compound 10g induced the degradation of α-tubulin and β-actin, and activated oncosis marker calpain-1 autolysis from the 80 kDa event to 76 kDa event in western blot analysis. *, p < 0.01; **, p < 0.01; #, p < 0.01; &, p < 0.001. (c) Compound 10g induced the upregulation of apoptotic protein Bax, caspase-3, caspase-9 and plasmic cytochrome c levels, and the downregulation of antiapoptotic protein Bcl-2 level. *, p < 0.001; **, p < 0.01; #, p < 0.01; and p < 0.01.

MEK1/2 = system: MEK1/2; design: method as in PMID 21245089; conditions: cited from earlier work

Compound | IC50 (SMMC-7721) | IC50 (Hep3B) | IC50 (HepG2) | IC50 [1] | IC50 (MEK1 [2]) | also measured
COC(=O)C1(C)CCCC2(C)c3ccc(C(C)C)cc3-c3c(c4ccccc4n3CCN3CCNCC3)C12 (stereo not drawn) [Compound 6a, 2,3,4,4a,9,13c-Hexahydro-7-isopropyl-1,4a-dimethyl-9–(2-(piperazin-1-yl)ethyl) -1H-dibenzo[a,c]carbazole-1-carboxylic acid methyl ester] | 5.2 ± 0.21 µM | 820 ± 80 nM | 2.28 ± 0.19 µM | 8.75 ± 0.65 µM | 13.2 ± 0.73 µM | MEK1 inhibitory activity (in words) (MEK1 [2]): weak MEK1 inhibitory activity; IC50 [3]: < 10 µM; MEK1 inhibitory activity in preliminary screening (in words) (MEK1 [4]): moderate inhibitory activity
CCOc1cccc2c3c(n(CCN4CCNCC4)c12)-c1cc(C(C)C)ccc1C1(C)CCCC(C)(C(=O)OC)C31 (stereo not drawn) [Compound 10h, 2,3,4,4a,9,13c-Hexahydro-10-ethoxy-7-isopropyl-1,4a-dimethyl-9–(2-(piperazin-1-yl)ethyl)-1H-dibenzo[a,c]carbazole-1-carboxylic acid methyl ester] | 2.21 ± 0.17 µM | 1780 ± 120 nM | 4.87 ± 0.48 µM | 18.9 ± 1.09 µM | 1.63 ± 0.12 µM | –
COC(=O)C1(C)CCCC2(C)c3ccc(C(C)C)cc3-c3c(c4cc(F)ccc4n3CCN3CCNCC3)C12 (stereo not drawn) [Compound 10i, 2,3,4,4a,9,13c-Hexahydro-12-fluoro-7-isopropyl-1,4a-dimethyl-9–(2-(piperazin-1-yl)ethyl)-1H-dibenzo[a,c]carbazole-1-carboxylic acid methyl ester] | 4.32 ± 0.27 µM | 3320 ± 200 nM | 3.91 ± 0.34 µM | 23.7 ± 1.53 µM | > 20 µM | –
COC(=O)C1(C)CCCC2(C)c3ccc(C(C)C)cc3-c3c(c4cc(Cl)ccc4n3CCN3CCNCC3)C12 (stereo not drawn) [Compound 10j, 2,3,4,4a,9,13c-Hexahydro-12-chloro-7-isopropyl-1,4a-dimethyl-9–(2-(piperazin-1-yl)ethyl)-1H-dibenzo[a,c]carbazole-1-carboxylic acid methyl ester] | 2.49 ± 0.18 µM | 3750 ± 340 nM | 2.88 ± 0.23 µM | 12.2 ± 1.01 µM | 5.62 ± 0.48 µM | –
CN1C(=O)C(Cc2c[nH]c3ccccc23)NC1=S (stereo not drawn) [Necrostatin-1] | – | – | – | – | – | effect of inhibitor on cell death caused by compound 10g (in words) (HepG2 cells; in combination with 10g): no apparent effect
O=C(O)/C(S)=C/c1ccc(I)cc1 [PD150606] | – | – | – | – | – | relative cell viability of HepG2 cells treated with 10g plus inhibitor (HepG2 cells; 10g 10 µM in combination with PD150606 50 µM): 44.87%
COC(=O)C[C@H](NC(=O)[C@H](C)NC(=O)[C@@H](NC(=O)OCc1ccccc1)C(C)C)C(=O)CF [Z-VAD-FMK] (Cbz-Val-Ala-Asp(OMe)-CH2F) | – | – | – | – | – | relative cell viability of HepG2 cells treated with 10g plus inhibitor (HepG2 cells; 10g 10 µM in combination with Z-VAD-FMK): 16.53%
CC(=O)Nc1cccc(-n2c(=O)n(C3CC3)c(=O)c3c(Nc4ccc(I)cc4F)n(C)c(=O)c(C)c32)c1 [trametinib] | – | – | – | – | – | IC50 (MEK1/2): 0.7 to 0.9 nM
